{"source": "patent US20250186448A1", "about": "(Mezzion Pharma Co., Ltd., priority 2021, published 2025)", "key": {"[1]": {"system": "adolescents with Fontan physiology", "assay": "FUEL trial: safety, adverse event reports", "format": "in vivo, human", "source_text": "The primary outcome was the change in oxygen consumption at peak exercise (max or peak VO2) from baseline to the 26-week visit. Secondary exercise outcomes included change in additional measures at maximal exertion, as well as change in measures of submaximal exercise at the ventilatory anaerobic threshold (VAT). The primary outcome for clinical secondary aims included change in myocardial performance index (MPI), an echocardiographically-derived measure of systolic and diastolic ventricular function, change in log-transformed reactive hyperemia index (lnRHI), a PAT-derived measure of peripheral vascular function, and change in log-transformed serum BNP level. Safety was monitored through adverse event reports, which were collected according to a pre-specified protocol of study coordinator outreach, and through ad hoc patient and family communication with members of the study team at each site.\nThe primary outcome for clinical secondary aims included the between group differences in change in myocardial performance index (MPI), an echocardiographically-derived measure of systolic and diastolic ventricular function, change in log-transformed reactive hyperemia index (lnRHI), a PAT-derived measure of peripheral vascular function, and change in log-transformed serum BNP level. Measurements for each of these secondary outcomes were performed at core labs. Safety was monitored through adverse event reports, which were collected according to a pre-specified protocol of study coordinator outreach, and through ad hoc patient and family communication with members of the study team at each site."}, "[2]": {"system": "adolescents with Single Ventricle Heart Disease who underwent Fontan palliation", "assay": "FALD study: liver stiffness by ultrasound shear wave elastography (SWE)", "format": "in vivo, human", "design": "USWE, Post Baseline: unit not given beside the values; USWE, Change from Baseline: unit not given here", "settings": "Cohort U− (udenafil for 52 weeks), individual subject", "source_text": "Ultrasound SWE uses one or more acoustic radiation force impulses (ARFI) or “push pulses” to generate shear waves in the tissue of interest. These shear waves can be tracked and their speed measured, with increasing tissue stiffness associated with increasing tissue shear wave speed. Shear wave speed can be mathematically converted to both shear and Young's moduli (in kPa), mechanical properties related to tissue rigidity and elasticity. There are two major forms of ultrasound SWE-“point” and “2D”. Point ultrasound SWE provides a very focal estimate of liver stiffness using a small region-of-interest, wh[…] ultrasound SWE provides a regional color parameteric map (elastogram) of image stiffness and allows measurement over a much larger area of the liver. The FALD study, ClinicalTrials.gov Identifier: NCT03430583, which is incorporated herein by reference in its entirety, was an open-label extension study that integrated with the FUEL Extension Trial. […] Both the U- cohort and the U+ cohort had liver stiffness measured by ultrasound and MR elastography (where available), and ELF biomarkers analyzed, as described above. […] The primary outcome measure of the FALD study was the range of liver stiffness in adolescents with Single Ventricle Heart Disease who underwent Fontan palliation. Secondary outcome measures included the effect of drug therapy on liver stiffness, and the effect of drug therapy on Enhanced Liver Fibrosis (ELF) score. See Clinical Trials.gov identifier NCT03430583, at p. 3. It is to be understood that present invention contemplates udenafil drug products that are therapeutically equivalent to the udenafil drug products of the present invention."}, "[3]": {"system": "adolescents with Fontan physiology", "settings": "phase I/II study, cited from earlier work"}, "[4]": {"system": "adolescents with Fontan physiology", "assay": "FUEL trial: echocardiographic myocardial performance index (MPI), blood pool Doppler", "format": "in vivo, human", "source_text": "Generally speaking, MPI (also referred to as the Doppler-derived index or Tei Index) is a measure of ventricular systolic and diastolic function as determined by a focused echocardiogram. It combines systolic and diastolic time intervals to assess heart function. More specifically, MPI can be used to assess ventricular performance represented by a numeric value using cardiac time intervals. This numeric value equals the sum of isovolumetric contraction time (ICT) and isovolumetric relaxation time (IRT) divided by ejection time (ET) and can be determined for either the left or right ventricle. Pellett, A. A., et al.: The Tei Index: Methodology and Disease. State Values. Echocardiography: A Jrnl. of CV Ultrasound & Allied Tech. 21(7):669-672 (2004); and Uluçay, A., Tatli E.: Myocardial performance index. Anadolu Kardiyol Derg. 8(2):143-8 (April, 2008), both of which are incorporated herein by reference in their entireties. In the FUEL Trial, the MPI measured the performance of the single functioning ventricle. Thus, the MPI results from the FUEL Trial were determined by velocities obtained from blood pool Doppler assessment of the inflow and outflow tract of the functioning single ventricle. In other words, the FUEL Trial MPI was determined by measuring the cardiac time intervals using pulsed-wave Doppler velocity spectra of the ventricular inflow and outflow of the single functioning ventricle.\nEchocardiograms were performed by sonographers with specific training for this protocol. The primary outcome of interest was MPI using Doppler-based measures of inflow and outflow duration. The duration of inflow into the dominant ventricle and outflow across the dominant semilunar valve were measured and used to calculate MPI using the standard formula. Tei C, Ling L H, Hodge D O, et al.: New index of combined systolic and diastolic myocardial performance: a simple and reproducible measure of cardiac function—a study in normal and dilated cardiomyopathy. J Cardiol, 26(6):357-66 (1995); and Pellet A A et al.: The Tei Index: Methodology and Disease State Values. Echocardiography: A Jrnl Of CV Ultrasound & Allied Tech, 21(7):669-672 (2004). Additional tissue Doppler images were obtained and used to calculate the tissue Doppler based MPI as previously described. Harada K, Tamura M, Toyono M et al.: Comparison of the right ventricular Tei index by tissue Doppler imaging to that obtained by pulsed Doppler in children without heart disease. Am J Cardiol, 90(5):566-9 (2002). Whenever possible, three measurements were made and the mean duration was used for the calculation.\nThe primary outcome was the change in oxygen consumption at peak exercise (max or peak VO2) from baseline to the 26-week visit. Secondary exercise outcomes included change in additional measures at maximal exertion, as well as change in measures of submaximal exercise at the ventilatory anaerobic threshold (VAT). […] Safety was monitored through adverse event reports, which were collected according to a pre-specified protocol of study coordinator outreach, and through ad hoc patient and family communication with members of the study team at each site.\nEach subject underwent an echocardiogram at the start and finish of the 26 weeks. […] The change in the MPI was determined by velocities obtained from blood pool Doppler assessment of the inflow and outflow tract of the single functioning dominant ventricle. […]"}}, "note": "“And” between values parts separate entries of the source, which are not always exact repeats. Equal entries are not always repeated.", "data": [{"smiles": "CCCOc1ccc(S(=O)(=O)NCCC2CCCN2C)cc1-c1nc2c(CCC)nn(C)c2c(=O)[nH]1", "note": "(stereo not shown) [Udenafil, udenafil]", "values": [{"measurement": "Deaths in the study cohort", "setting": "[1]; FUEL trial", "value": "no deaths"}, {"measurement": "Non-serious adverse event: Dizziness, participants", "setting": "[1]; human, in vivo, 6 months", "value": "16 (8.0) n (%)"}, {"measurement": "Non-serious adverse event: Epistaxis, participants", "setting": "[1]; human, in vivo, 6 months", "value": "21 (10.5) n (%)"}, {"measurement": "Non-serious adverse event: Flushing, participants", "setting": "[1]; human, in vivo, 6 months", "value": "32 (16.0) n (%)"}, {"measurement": "Non-serious adverse event: Headache, participants", "setting": "[1]; human, in vivo, 6 months", "value": "79 (39.5) n (%)"}, {"measurement": "Non-serious adverse event: Nausea/vomiting, participants", "setting": "[1]; human, in vivo, 6 months", "value": "31 (15.5) n (%)"}, {"measurement": "Participants who experienced a serious adverse event", "setting": "[1]; human, in vivo, 6 months", "value": 14}, {"measurement": "Serious adverse events with possible, probable, or definite relationship to study drug, number of events", "setting": "[1]; human, in vivo, 6 months", "value": 3}, {"measurement": "Headache, facial flushing, abdominal pain, epistaxis, and erection (male participants), frequency vs placebo", "setting": "[1]; in vivo", "value": "more common in the udenafil group"}, {"measurement": "Priapism", "setting": "[1]; in vivo", "value": "no reported episodes of priapism"}, {"measurement": "Non-serious adverse event: Increased erection, participants", "setting": "[1]; male, human, in vivo, 6 months", "value": "13 (11.7) n (%)"}, {"measurement": "USWE, % Change from Baseline", "setting": "[2]", "value": "−2.439% and −7.692% and 6.011% and 20.92% and −0.9302% and −22.07% and −1.22%"}, {"measurement": "USWE, Change from Baseline", "setting": "[2]", "value": "−0.06 and −0.13 and 0.11 and 0.41 and −0.02 (2×) and −0.49 and 0.09"}, {"measurement": "USWE, Post Baseline", "setting": "[2]; Post Baseline visit (52 week)", "value": "2.4 and 1.56 and 1.94 and 2.37 and 2.13 and 1.73 and 1.62 and 2.08"}, {"measurement": "Tolerability", "setting": "[3]; adolescents with Fontan physiology, all tested dosing regimens", "value": "demonstrated tolerability at all tested dosing regimens"}, {"measurement": "Average serum concentration, compared among dosing regimens", "setting": "[3]; 87.5 mg twice daily", "value": "highest average serum concentration"}, {"measurement": "Dose limiting adverse events", "setting": "[3]; 87.5 mg twice daily", "value": "not associated with dose limiting adverse events"}, {"measurement": "MPI difference, Week 26 - Baseline, mean", "setting": "[4]; 87.5 mg twice daily, paired data, decrease shows improvement, p 0.028 vs placebo", "value": "122: −0.02"}, {"measurement": "MPI, LS Mean Dif A − B (udenafil − placebo)", "setting": "[4]; Baseline, p 0.818", "value": "−0.0"}, {"measurement": "MPI, LS Mean Dif A − B (udenafil − placebo)", "setting": "[4]; Week 26, p 0.024", "value": "−0.04"}, {"measurement": "MPI, LS Mean Dif A − B (udenafil − placebo) of difference Week 26 - Baseline", "setting": "[4]; p 0.028", "value": "−0.03"}, {"measurement": "MPI, udenafil treated group compared to placebo", "setting": "[4]; p=0.028", "value": "statistically significant improvement"}]}]}
